Patent publication US8907089B2, “Fused heterocyclic ring derivative and use thereof” (Takeda Pharmaceutical Company Limited, priority 2009, dated 2014)

Test system: mouse medulloblastoma (Patched 1(+/-), p53(-/-)) subcutaneously transplanted into nude mouse
Test: In vivo anti-tumor test, mouse medulloblastoma allogeneic transplantation model
Conditions: 1 mg/kg, orally twice a day for 2 weeks, 0.5% methylcellulose suspension; nude mouse with subcutaneous medulloblastoma; at the end of the test; p < 0.025 (Dunnett's test)
Procedure: According to the description in Sasaki, K. et al., (2006) Cancer Res. 66: 4215-4222, an anti-tumor effect of a compound was evaluated using a mouse medulloblastoma allogeneic transplantation model. To be precise, Patched 1 gene mutant mouse (lineage name: Ptch1tm1Mps/J) was purchased from The Jackson Laboratory and p53 gene mutant mouse (lineage name: P53N4-M, Nomenclature: B6.129-Trp53tm/BrdN4) was purchased from Taconic, and a mouse of Patched 1(+/−), p53(−/−) phenotype was prepared by mating. […]
An anti-tumor test was performed using a tumor passaged by subcutaneous transplantation. […] The tumor diameter after transplantation was measured and, when the tumor size reached 150-250 mm^3, the anti-tumor test was started using 5 mice per group.
The test compound was prepared to achieve a dose of 1 mg/kg with a 0.5% methylcellulose (Shin-Etsu Chemical Co. Ltd., Cat. No. SM-100) suspension, and orally administered twice a day for 2 weeks. The tumor size was calculated based on the longer diameter and shorter diameter of the tumor measured with an electron vernier caliper. After the start of the test, the tumor size was measured every 2 or 3 days and the growth rate of the tumor size was calculated. […]

CCc1cc2c(c(OCC(F)(F)F)c(C(=O)NC3CCN(C(=O)CO)CC3)n2C)c(=O)n1-c1ccc(F)cc1 [Example 5, 6-ethyl-5-(4-fluorophenyl)-N-[1-(hydroxyacetyl)piperidin-4-yl]-1-methyl-4-oxo-3-(2,2,2-trifluoroethoxy)-4,5-dihydro-1H-pyrrolo[3,2-c]pyridine-2-carboxamide]
T/C (%) growth rate of the tumor size: 42%

CCc1cc2c(c(OC(C)C)c(C(=O)NC3CCN(C(=O)CO)CC3)n2C)c(=O)n1-c1ccc(F)cc1 [Example 7, 6-ethyl-5-(4-fluorophenyl)-N-[1-(hydroxyacetyl)piperidin-4-yl]-1-methyl-3-(1-methylethoxy)-4-oxo-4,5-dihydro-1H-pyrrolo[3,2-c]pyridine-2-carboxamide]
T/C (%) growth rate of the tumor size: 40%
